Test results as given in US20120101083A1, “S1P1 AGONISTS COMPRISING A BICYCLIC N-CONTAINING RING” (GLAXO GROUP LIMITED, priority 2009, published 2012).
Counter-ions that a name gives are not always drawn.

Columns and labels:
[1] = molecular target: T1, S1P1 (PathHunter CHO-K1 EDG1 β-Arrestin cell line) (Homo sapiens, UniProt P21453); assay: S1P-1 β-Arrestin recruitment assay; assay type: cell-based; conditions: CHO-K1 EDG1 β-Arrestin cells, chemi-luminescence
T1 construct: host or cells: PathHunter CHO-K1 EDG1 β-Arrestin cell line
T1 sequence (P21453 whole entry): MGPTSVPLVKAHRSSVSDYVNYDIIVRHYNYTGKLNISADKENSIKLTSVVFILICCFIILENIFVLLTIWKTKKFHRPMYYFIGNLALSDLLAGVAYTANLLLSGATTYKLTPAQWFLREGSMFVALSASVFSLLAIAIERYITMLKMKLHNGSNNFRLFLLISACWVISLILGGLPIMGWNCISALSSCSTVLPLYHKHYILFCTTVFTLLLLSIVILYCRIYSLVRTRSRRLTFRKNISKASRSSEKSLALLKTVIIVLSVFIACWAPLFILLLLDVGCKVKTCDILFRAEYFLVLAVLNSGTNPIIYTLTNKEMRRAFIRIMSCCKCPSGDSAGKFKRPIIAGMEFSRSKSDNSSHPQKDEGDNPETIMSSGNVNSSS
T1 sequence (P32121 whole entry partner): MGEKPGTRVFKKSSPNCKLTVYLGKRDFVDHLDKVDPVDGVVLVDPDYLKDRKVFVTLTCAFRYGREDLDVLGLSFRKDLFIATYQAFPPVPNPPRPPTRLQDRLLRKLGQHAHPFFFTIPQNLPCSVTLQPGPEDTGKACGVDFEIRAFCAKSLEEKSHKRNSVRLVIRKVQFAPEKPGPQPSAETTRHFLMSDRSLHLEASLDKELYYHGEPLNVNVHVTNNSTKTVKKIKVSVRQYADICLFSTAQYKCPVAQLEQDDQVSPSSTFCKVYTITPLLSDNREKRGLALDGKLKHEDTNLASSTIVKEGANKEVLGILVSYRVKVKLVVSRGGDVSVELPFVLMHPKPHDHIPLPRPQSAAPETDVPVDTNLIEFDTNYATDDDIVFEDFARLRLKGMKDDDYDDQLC
Experimental: S1P-1 β-Arrestin Recruitment Assay
β-Arrestin recruitment assays were carried out using the PathHunter CHO-K1 EDG1
β-Arrestin cell line (DiscoveRx Corporation) in a chemi-luminescence detection assay. This cell line stably expresses β-Arrestin 2 and S1P1 fused to complementing portions of β-galactosidase (‘EA’ and ‘pro-link’, respectively) which associate upon Arrestin recruitment to form functional β-galactosidase enzyme.
Cells were grown to 80% confluency in Growth Medium (F12 nutrient HAMS supplemented with 10% heat-inactivated USA FBS, 1% L-glutamax, 800 μg/ml Geneticin and 300 μg/ml Hygromycin). Cells were harvested from the flask using Enzyme Free Cell Dissociation Buffer (Gibco) and washed from flasks with Optimem solution (Gibco). Cells were then centrifuged at 1000 rpm for 2-3 min and resuspended in Assay Buffer (Prepared from Sigma kit H1387 supplemented with 20 ml/L HEPES, 4.7 ml/L NaHCO3, 0.1% pluronic acid F-68 solution, 0.1% BSA and adjusted to pH 7.4 using sodium hydroxide at 1×10^6 cells/ml. Cells were dispensed into assay plates containing compounds (100n1/well of a solution of test compound in 100% DMSO) at 1×10^4 cells/well and incubated at 37° C./5% CO2 for 90 min followed by 15 min at room temperature. 5 μl detection mix (1 part Galacton Star, 5 parts Emerald II, 19 parts Assay Buffer; DiscoveRx) were added per well and the plates incubated at room temperature for 60 min. Luminescence was quantified using a Viewlux plate reader.

[2] = molecular target: T2, S1P1 receptor (S1P1 expressing RH7777 membranes) (Homo sapiens, UniProt P21453); assay: S1P1 GTPγS assay; assay type: biochemical; conditions: tested in one of the above S1P1 assays (two GTPγS formats)
T2 construct: expressed in transfected cells; host or cells: RH7777 cells (membranes)
T2 sequence (P21453 whole entry): as the sequence (P21453 whole entry) above
Summary of the method: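 Membranes from RH7777 cells expressing human S1P1 (1.5 μg/well) precoupled 30 min on ice to WGA SPA beads in 20 mM HEPES pH 7.4, 10 mM MgCl2, 100 mM NaCl, with 10 μM GDP and 90 μg/ml saponin. [35S]-GTPγS 0.5 nM final added with compound; SPA signal read immediately.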

SMILES | EC50 [1] | EC50 [2]
Cc1c(-c2noc(-c3ccc(OC(C)C)c(C#N)c3)n2)ccc2c1CCN(C(=O)CCCN)C2 [Example 41, 5-{3-[2-(4-Aminobutanoyl)-5-methyl-1,2,3,4-tetrahydro-6-isoquinolinyl]-1,2,4-oxadiazol-5-yl}-2-[(1-methylethyl)oxy]benzonitrile hydrochloride] | ≤ 10 nM | ≤ 100 nM
Cc1c(-c2noc(-c3ccc(OC(C)C)c(C#N)c3)n2)ccc2c1CCN(C[C@@H](O)CO)CC2 [Example 154, 5-(3-{3-[(2R)-2,3-dihydroxypropyl]-6-methyl-2,3,4,5-tetrahydro-1H-3-benzazepin-7-yl}-1,2,4-oxadiazol-5-yl)-2-[(1-methylethyl)oxy]benzonitrile hydrochloride] | ≤ 100 nM | ≤ 100 nM
Cc1c(-c2noc(-c3ccc(OC(C)C)c(C#N)c3)n2)ccc2c1CCN(CC(=O)N[C@H](C)CO)CC2 [Example 159] | ≤ 10 nM | ≤ 100 nM
Cc1c(-c2nnc(-c3ccc(OC(C)C)c(C#N)c3)s2)ccc2c1CCN(CCC(N)=O)C2 [Example 10, 3-[6-(5-{3-Cyano-4-[(1-methylethyl)oxy]phenyl}-1,3,4-thiadiazol-2-yl)-5-methyl-3,4-dihydro-2(1H)-isoquinolinyl]propanamide] | ≤ 10 nM | ≤ 100 nM
CC(C)Oc1ccc(-c2nc(-c3ccc4c(c3)CCN(C(=O)CN)CC4)no2)cc1C#N [Example 48, 5-[3-(3-glycyl-2,3,4,5-tetrahydro-1H-3-benzazepin-7-yl)-1,2,4-oxadiazol-5-yl]-2-[(1-methylethyl)oxy]benzonitrile trifluoroacetate] | ≤ 10 nM | ≤ 10 nM
Cc1c(-c2noc(-c3ccc(OC(C)C)c(C#N)c3)n2)ccc2c1CCN(C(=O)CCN)C2 [Example 39, 5-[3-(2-β-Alanyl-5-methyl-1,2,3,4-tetrahydro-6-isoquinolinyl)-1,2,4-oxadiazol-5-yl]-2-[(1-methylethyl)oxy]benzonitrile hydrochloride] | ≤ 10 nM | ≤ 100 nM

The next lines start with the values.

EC50 [1] | EC50 [2] | SMILES
≤ 10 nM | 1 nM | CC(C)Oc1ccc(-c2nc(-c3cccc4c3CCN(C(=O)[C@@H](N)CO)C4)no2)cc1C#N [Example 89, 2-[(1-methylethyl)oxy]-5-[3-(2-L-seryl-1,2,3,4-tetrahydro-5-isoquinolinyl)-1,2,4-oxadiazol-5-yl]benzonitrile hydrochloride]
≤ 10 nM | ≤ 100 nM | Cc1c(-c2noc(-c3ccc(OC(C)C)c(C#N)c3)n2)ccc2c1CCN(C(=O)CNCC(O)CO)CC2 (stereo not shown) [Example 187, 5-(3-{3-[N-(2,3-dihydroxypropyl)glycyl]-6-methyl-2,3,4,5-tetrahydro-1H-3-benzazepin-7-yl}-1,2,4-oxadiazol-5-yl)-2-[(1-methylethyl)oxy]benzonitrile]
≤ 10 nM | ≤ 100 nM | Cc1c(-c2noc(-c3ccc(OC(C)C)c(C#N)c3)n2)ccc2c1CCN(CC(=O)NC[C@@H](C)O)CC2 [Example 147, 2-[7-(5-{3-cyano-4-[(1-methylethyl)oxy]phenyl}-1,2,4-oxadiazol-3-yl)-6-methyl-1,2,4,5-tetrahydro-3H-3-benzazepin-3-yl]-N-[(2R)-2-hydroxypropyl]acetamide]
≤ 10 nM | ≤ 100 nM | Cc1c(-c2noc(-c3ccc(OC(C)C)c(C#N)c3)n2)ccc2c1CCN(C(CO)CO)CC2 [Example 156, 5-(3-{3-[2-hydroxy-1-(hydroxymethyl)ethyl]-6-methyl-2,3,4,5-tetrahydro-1H-3-benzazepin-7-yl}-1,2,4-oxadiazol-5-yl)-2-[(1-methylethyl)oxy]benzonitrile hydrochloride]
≤ 10 nM | ≤ 100 nM | CC(C)Oc1ccc(-c2nc(-c3ccc4c(c3)CCN(CC(=O)N[C@@H](C)CO)CC4)no2)cc1C#N [Example 80, 2-[7-(5-{3-cyano-4-[(1-methylethyl)oxy]phenyl}-1,2,4-oxadiazol-3-yl)-1,2,4,5-tetrahydro-3H-3-benzazepin-3-yl]-N-[(1S)-2-hydroxy-1-methylethyl]acetamide hydrochloride]
